Where a name gives a salt, the structure may show the parent alone.
Assays:
[1] = biological target: T1, thromboxane synthetase (Oryctolagus cuniculus, UniProt G1TAZ9); assay: Inhibitory potency of imidazole compounds on thromboxane synthetase (conversion of prostaglandin H2 to thromboxane B2 by rabbit platelet microsomes); format: biochemical; details: 24° C., 1 minute
T1 construct: from tissue; host or cells: rabbit platelets (microsomes)
T1 sequence (G1TAZ9 1-530): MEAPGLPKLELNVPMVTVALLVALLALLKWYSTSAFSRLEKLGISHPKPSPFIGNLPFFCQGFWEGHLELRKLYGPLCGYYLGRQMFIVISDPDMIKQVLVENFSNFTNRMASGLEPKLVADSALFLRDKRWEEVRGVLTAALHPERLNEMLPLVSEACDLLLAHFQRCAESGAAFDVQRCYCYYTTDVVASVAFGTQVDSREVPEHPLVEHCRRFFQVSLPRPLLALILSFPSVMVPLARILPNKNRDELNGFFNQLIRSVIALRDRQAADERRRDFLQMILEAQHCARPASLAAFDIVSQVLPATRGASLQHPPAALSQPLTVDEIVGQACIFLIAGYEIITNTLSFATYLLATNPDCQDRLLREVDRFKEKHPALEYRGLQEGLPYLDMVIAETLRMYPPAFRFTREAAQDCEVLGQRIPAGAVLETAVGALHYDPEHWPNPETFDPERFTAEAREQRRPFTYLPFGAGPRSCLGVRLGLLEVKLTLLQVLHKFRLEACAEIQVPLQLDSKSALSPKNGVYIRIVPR
Method: (1-C^14)-Prostaglandin H2, obtained by the enzymatic biosynthesis with ram seminal vesicle microsomes and (1-C^14)-arachidonic acid, was incubated with rabbit platelet microsomes containing 0.025 μM and 0.5 μM of the test compound at 24° C. for 1 minute. The termination of the reaction and the extraction of a radioactive materials were carried out by the addition of a mixture of ethyl acetate/methanol/0.2 M citric acid (30:4:1 by volume). […] A spot of thromboxane B2 was counted by a packard Radiochromatogram Scanner.

[2] = system: thromboxane synthetase; details: in words; reported in the literature; cited from earlier work
[3] = Acute toxicity (LD50), intravenous, mice; details: mouse, in vivo, dd-stain male mice, 7 weeks old, Behrens-Karber method, read-out: median lethal dose (LD50)
Method: The median lethal dose (LD50) of N-(7-carboxyheptyl)imidazole and N-(6-methoxycarbonylhexyl)imidazole (known compound) were determined in dd-stain male mice (7 weeks old) by intravenous administration. The LD50 values were calculated according to the Behrens-Karber method.

[4] = system: thromboxane synthetase; assay: Inhibitory effect on thromboxane synthetase, general statements; format: biochemical; details: in words

| inhibition at 0.025 µM [1] [%] | inhibition at 0.5 µM [1] [%] | Compound | other results |
| --- | --- | --- | --- |
| 10.1 | 76.1 | O=C(O)CCCCCCn1ccnc1 [N-(6-carboxyhexyl)imidazole hydrochloride] |  |
| 42.2 | 90.8 | O=C(O)CCCCCCCCn1ccnc1 [N-(8-carboxyoctyl)imidazole hydrochloride] |  |
| 20.2 | 72.5 | O=C(O)CCCCCCCCCn1ccnc1 [N-(9-carboxynonyl)imidazole hydrochloride] |  |
| 9.2 | 40.4 | O=C(O)CCCCCCCCCCn1ccnc1 [N-(10-carboxydecyl)imidazole hydrochloride] |  |
| 13.8 | 46.8 | O=C(O)CCCCCCCCCCCn1ccnc1 [N-(11-carboxyundecyl)imidazole hydrochloride] |  |

Further lines, the compound ahead of its results:

| Compound | inhibition at 0.025 µM [1] [%] | inhibition at 0.5 µM [1] [%] | other results |
| --- | --- | --- | --- |
| O=C(O)CCCCCCCn1ccnc1 [1-(7-Carboxyheptyl)imidazole Hydrochloride] | 31.2 | 89 |  |
| Cn1ccnc1 [1-methylimidazole] |  |  | inhibitory action for thromboxane synthetase [2]: weak |
| COC(=O)CCCCCCn1ccnc1 [N-(6-methoxycarbonylhexyl)imidazole, reference compound] | 5.5 | 25.7 | LD50 [3]: 140 mg/kg; inhibitory effect on thromboxane synthetase compared with imidazole or 1-methylimidazole [4]: stronger inhibitory effect; inhibitory effect on thromboxane synthetase, suitability as medication [4]: not completely satisfactory as a practical medication |
| O=C(O)CCCCCCCn1ccnc1 [N-(7-carboxyheptyl)imidazole, 1-(7-Carboxyheptyl)imidazole] |  |  | LD50 [3]: 560 mg/kg |
| c1c[nH]cn1 [imidazole] |  |  | inhibitory action for thromboxane synthetase [2]: weak |

— patent US4320134A, “Inhibiton of thromboxane synthetase with 1-substituted imidazole compounds” (Ono Pharmaceutical Co., Ltd., priority 1978, dated 1982)
